In patent publication US11976065B2 (CELISTA PHARMACEUTICALS LLC, priority 2020, dated 2024):

Test: pH of the samples in water, pH probe
Format: physicochemical
Settings: aqueous sample

CC(C)Cn1cnc2c(N)nc3ccccc3c21 [Imiquimod, 1-(2-methylpropyl)-1H-imidazo[4,5-c]quinolin-4-amine]
pH: 7.10
